# From article PMC7817688, “Identification of 3-chymotrypsin like protease (3CLPro) inhibitors as potential anti-SARS-CoV-2 agents” (Communications Biology, 2021)
# Values joined by “and” are separate entries in the source; they are usually repeats but may differ in a detail not shown here. Identical values can stand only once.
# Molecular target: SARS-CoV-2 3CLpro enzyme (Severe acute respiratory syndrome coronavirus 2, UniProt P0DTD1)
# Experiment: biochemical
# Details: for percent enzymatic activity, individual values / percent enzymatic activity, AVG: DMSO treated control = 100%, data of Figs. 2-4; for percent enzymatic activity, AVG: mean of 3 values
# [1] = dose-dependent study, 50 uM, individual values
compound,measurement,setting,value
CCC[C@H](NC(=O)[C@@H]1[C@H]2CCC[C@H]2CN1C(=O)[C@@H](NC(=O)[C@@H](NC(=O)c1cnccn1)C1CCCCC1)C(C)(C)C)C(=O)C(=O)NC1CC1 [Telaprevir],"percent enzymatic activity, individual values",50 µM drug,64.9635% and 42.7007% and 84.6715%
same,"percent enzymatic activity, AVG",50 µM drug,64.1119%
COc1cnc(-n2cnc(C)n2)c2[nH]cc(C(=O)C(=O)N3CCN(C(=O)c4ccccc4)CC3)c12 [Temsavir],"percent enzymatic activity, individual values",50 µM drug,93.8534% and 98.0433% and 100.976%
same,"percent enzymatic activity, AVG",50 µM drug,97.6243%
CCC[C@@]1(CCc2ccccc2)CC(O)=C([C@H](CC)c2cccc(NS(=O)(=O)c3ccc(C(F)(F)F)cn3)c2)C(=O)O1 [Tipranavir],"percent enzymatic activity, individual values",50 µM drug,30.4148% and 38.7097% and 37.3272%
same,"percent enzymatic activity, AVG",50 µM drug,35.4839%
same,% activity,"dose-dependent study, 0.097656 uM, individual values",82.4284% (2×) and 99.6504%
same,activity at 0.097656 µM,"dose-dependent study, 0.097656 uM, individual values, read-out: % activity",101%
same,% activity,"dose-dependent study, 0.195313 uM, individual values",93.9114% and 73.379% and 92.2647% and 99.6504%
same,% activity,"dose-dependent study, 0.390625 uM, individual values",86.3629% and 90.6909% and 88.1724%
same,activity at 0.390625 µM,"dose-dependent study, 0.390625 uM, individual values, read-out: % activity",104%
same,% activity,"dose-dependent study, 0.78125 uM, individual values",90.2974% and 88.7236% and 98.607%
same,activity at 0.78125 µM,"dose-dependent study, 0.78125 uM, individual values, read-out: % activity",109%
same,% activity,"dose-dependent study, 1.5625 uM, individual values",116.346% and 88.7236% and 94.6254%
same,% activity,"dose-dependent study, 3.125 uM, individual values",93.8385% and 93.4451% and 104.346%
same,activity at 3.125 µM,"dose-dependent study, 3.125 uM, individual values, read-out: % activity",110%
same,% activity,"dose-dependent study, 6.25 uM, individual values",117.389% and 86.7564% and 86.3629%
same,% activity,"dose-dependent study, 12.5 uM, individual values",89.5105% and 88.3302% and 98.0853%
same,activity at 12.5 µM,"dose-dependent study, 12.5 uM, individual values, read-out: % activity",107%
same,% activity,"dose-dependent study, 25 uM, individual values",75.6509% and 84.3957% and 93.4451% and 63.6511%
same,% activity,[1],69.8379% and 61.9688% and 53.2165%
same,activity at 50 µM,[1],57.4%
same,% activity,"dose-dependent study, 100 uM, individual values",47.9992% and 60.395% and 69.8379% and 42.7819%
same,IC50,"drugs 0 to 100 µM, 50 µM substrate, non-linear four variable fit, read-out: IC50 for SARS-CoV-2 3CL protease",27.7 µM
same,inhibitory effect towards 3CLpro enzymatic activity (in words),in vitro enzymatic assay at the tested doses,partial inhibitory effect
same,inhibition at 50 µM,"read-out: inhibition of 3CLpro enzymatic activity, 50 µM drug",64%
same,inhibition at 100 µM,"read-out: inhibition of 3CLpro enzymatic activity, 100 µM drug",50%
CCOC(=O)c1c(CSc2ccccc2)n(C)c2cc(Br)c(O)c(CN(C)C)c12 [Umifenovir],"percent enzymatic activity, individual values",50 µM drug,80.6569% and 86.8613% and 87.2263%
same,"percent enzymatic activity, AVG",50 µM drug,84.9148%
Candicidin,"percent enzymatic activity, individual values",50 µM drug,86.2745% and 80.3922% and 82.3529%
same,"percent enzymatic activity, AVG",50 µM drug,83.0065%
Maraviroc,"percent enzymatic activity, individual values",50 µM drug,91.5462% and 88.779% and 142.739%
